Type in all cases: biochemical
The target in one assay is T1, rat granzyme K (Rattus norvegicus, UniProt P49864).
T1 sequence (P49864 26-258): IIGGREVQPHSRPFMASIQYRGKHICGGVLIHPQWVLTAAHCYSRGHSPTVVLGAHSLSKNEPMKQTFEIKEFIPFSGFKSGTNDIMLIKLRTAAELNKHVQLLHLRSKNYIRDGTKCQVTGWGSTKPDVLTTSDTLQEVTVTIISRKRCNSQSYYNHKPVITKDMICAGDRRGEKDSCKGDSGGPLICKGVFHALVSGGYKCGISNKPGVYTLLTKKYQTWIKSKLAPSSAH
The experiment in a line: Inactivation rate of rat granzyme K, incubation method. The note with it: Table I; 0.1M Hepes, 0.01M CaCl2 pH 7.5, 25° C., 7.1% DMSO, substrate Z--Arg--SBzl; NI = no inhibition after 25 min of incubation. The procedure:
(§1) Inactivation rates of serine proteases by aryl diesters of peptidyl derivatives of α-aminoalkylphosphonates were measured by the incubation method. An aliquot of inhibitor (25 or 50 μl) in Me2 SO was added to a buffered enzyme solution (0.01-2.3 μM) to initiate the inactivation. Aliquots (50 μl) were withdrawn at various intervals and the residual enzymatic activity was measured. Me2 SO concentration in the reaction mixture was 8-12% (v/v). A 0.1 M HEPES, 0.01 M CaCl2, pH 7.5 buffer was utilized for trypsin and trypsin-like enzymes. A 0.1 M HEPES, 0.5 M NaCl, pH 7.5, was utilized for the other serine proteases. Peptide thioesters or peptide nitroanilides with the appropriate sequences were used as substrates for various serine proteases. All peptide thioesters hydrolysis rates were measured with the assay mixture containing 4,4'-dithiodipyridine {ε324 =19800 M^-1 cm^-1; Grasetti & Murray, Arch. Biochem. Biophys. 1967, 119, 41-48}. Peptide 4-nitroanilide hydrolysis was measured at 410 nm {ε410 =8800 M^-1 cm^-1; Erlanger et al., Arch. Biochem. Biophys. 1961, 95, 271-278}. First order inactivation rate constants (Kobs) were obtained from plots of In vt /vo vs time, and the correlation coefficients were greater then 0.98.
(§2) ^a Inhibition constants were measured in 0.1M Hepes, 0.01M CaCl2
(§3) pH 7.5 for trypsin, granzymes A, and K, and in 0.1M Hepes, 10% glycerol,
(§4) 10 mM heparin, pH 7.5 for mast cell tryptase, and at 25° C. The
(§5) reaction mixtures contained 2% DMSO for trypsin, 7.6% for granzyme A, and
(§6) 7.1% for granzyme K and tryptase. The substrate was Z--Arg--SBzl for
(§7) granzymes and trypsin, and Z--Arg--SBzl or Z--Lys--SBzl for tryptase in
(§8) the presence of DTNB. The inhibitor # concentration ranged from 0.001 to
(§9) ^b NI, no inhibition after 25 min of incubation with enzyme.

Another assay concerns the target T2, bovine trypsin (Bos taurus, UniProt P00760).
T2 sequence (P00760 24-246): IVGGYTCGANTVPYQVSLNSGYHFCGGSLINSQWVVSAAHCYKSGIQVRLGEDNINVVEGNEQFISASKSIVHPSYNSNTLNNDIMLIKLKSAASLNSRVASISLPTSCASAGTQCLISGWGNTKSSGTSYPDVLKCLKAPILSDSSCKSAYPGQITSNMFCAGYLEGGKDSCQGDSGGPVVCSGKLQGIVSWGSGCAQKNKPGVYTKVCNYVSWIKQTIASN
The assay can be described thus: Inactivation rate of bovine trypsin, incubation method. The note with it: for kobsd /[I] bovine trypsin: Table I, 0.1M Hepes, 0.01M CaCl2 pH 7.5, 25° C., 2% DMSO, substrate Z--Arg--SBzl, NI = no inhibition after 25 min; for kobs /[I] bovine trypsin: Table II, 0.13 μM trypsin, 0.25-42 μM inhibitor, 80 mM Hepes pH 7.5, 1 mM CaCl2, 8% DMSO, 25° C., NI = no inhibition. The method, then: as §1, §2, §3, §4, §5, §6, §7, §8, §9
(§10) ^a Enzyme was incubated with the inhibitor in 250 μL of the proper
(§11) buffer at 25° C. Specifically, the inhibition reation mixtures wer
composed of: 0.13 μM trypsin, 0.25-42 μM inhibitor in an 80 mM
(§12) Hepes, pH 7.5 buffer containing 1 mM CaCl2 and 8% DMSO; 0.07 μM
(§13) DMSO. Aliquots of 25 μL were withdrawn at various intervals and the
(§14) residual enzymatic activity was measured as described in experimental
(§15) section. The kobs values were calculated from pseudofirst-order
(§16) ^a Enzyme (0.06-0.5 μM) was incubated with the inhibitor (0.25-42
(§17) μM) in 250 μL of the proper buffer containing 9% DMSO at 25°
(§18) C. The final inhibition reaction mixtures are given in the footnote to
(§19) Table 1. Aliquots of 25 μL were withdrawn at various intervals and the […]

A further assay has as its target T3, human thrombin (Homo sapiens, UniProt P00734).
T3 construct: bovine trypsin, human thrombin
The note with it: Table II; 0.07 μM thrombin, 0.25-42 μM inhibitor, 80 mM Hepes pH 7.5, 428 mM NaCl, 8% DMSO, 25° C.; NI = no inhibition. The procedure:
as §1, with “271-278}.” for “271-278}. First order inactivation rate constants (Kobs) were obtained from plots of In vt /vo vs time, and the correlation coefficients were greater then 0.98.”
as §10, §11, §12
thrombin, 0.25-42 μM inhibitor in an 80 mM Hepes, pH 7.5 buffer
(§20) containing 428 mM NaCl and 8% DMSO; 0.07 μM tryptase, 20-66 μM
as §13, §14, §15, §16, §17, §18, §19

The next assay has as its target T4, human granzyme A (Homo sapiens, UniProt P12544).
T4 sequence (P12544 29-262): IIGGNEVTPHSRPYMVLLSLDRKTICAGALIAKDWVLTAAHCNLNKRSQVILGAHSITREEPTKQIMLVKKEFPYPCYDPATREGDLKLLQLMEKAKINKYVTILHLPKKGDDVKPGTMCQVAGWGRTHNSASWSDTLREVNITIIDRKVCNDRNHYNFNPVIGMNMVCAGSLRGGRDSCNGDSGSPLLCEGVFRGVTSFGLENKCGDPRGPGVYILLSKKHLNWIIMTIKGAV
The assay can be described thus: Inactivation rate of human granzyme A, incubation method. The note with it: Table I; 0.1M Hepes, 0.01M CaCl2 pH 7.5, 25° C., 7.6% DMSO, substrate Z--Arg--SBzl. The procedure: as §1, §2, §3, §4, §5, §6, §7, §8, §9

Another assay concerns the target mast cell tryptase (Homo sapiens, UniProt Q15661). The assay can be described thus: Inactivation rate of mast cell tryptase, incubation method. The note with it: for kobsd /[I] mast cell tryptase: Table I, 0.1M Hepes, 10% glycerol, 10 mM heparin, pH 7.5, 25° C., 7.1% DMSO, NI = no inhibition after 25 min of incubation; for kobs /[I] mast cell tryptase: Table II, 0.07 μM tryptase, 20-66 μM inhibitor, Hepes pH 7.5, heparin, 9% glycerol, 8% DMSO, 25° C., NI = no inhibition. The method, then: as §1, §2, §3, §4, §5, §6, §7, §8, §9, §10, §20
inhibitor # in an mM Hepes, pH 7.5 buffer containing 8 mM heparin, 166 m
NaCl, 0.8 mM Mes, 9% glycerol and 8% DMSO; 0.42 μM factor Xa, 66 μM
as §13, §14, §15, §16, §17, §18, §19

The results in this text go back to US5952307A, “Basic α-aminoalkylphosphonate derivatives” (priority 1997, dated 1999).

Sequence of mast cell tryptase (Q15661 31-275): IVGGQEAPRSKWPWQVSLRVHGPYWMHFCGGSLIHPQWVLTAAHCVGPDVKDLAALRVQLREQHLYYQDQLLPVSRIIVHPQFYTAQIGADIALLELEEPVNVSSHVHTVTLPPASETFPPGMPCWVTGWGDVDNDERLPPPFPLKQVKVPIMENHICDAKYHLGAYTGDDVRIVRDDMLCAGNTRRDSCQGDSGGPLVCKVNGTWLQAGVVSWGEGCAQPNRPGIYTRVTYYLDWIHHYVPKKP

As to `Cl.N=C(N)c1ccc(C(NC(=O)[C@@H]2CCCN2C(=O)OCc2ccccc2)P(=O)(Oc2ccccc2)Oc2ccccc2)cc1` (stereo partly drawn) [Cbz--Pro-(4-AmPhGly)^P (OPh)2, Diphenyl N-(N-benzyloxycarbonylprolyl)amino(4-amidinophenyl)methanephosphonate hydrochloride], at rat granzyme K, the “kobsd /[I] rat granzyme K” value was determined as 34 ± 4 M⁻¹ s⁻¹. Also, on bovine trypsin, the “kobsd /[I] bovine trypsin” value is 910 ± 81 M⁻¹ s⁻¹ and the “kobs /[I] bovine trypsin” value came out at 910 ± 81 M⁻¹ s⁻¹. In addition, the “kobs /[I] human thrombin” value on human thrombin was 640 ± 86 M⁻¹ s⁻¹. Further, the “kobsd /[I] human granzyme A” value at human granzyme A was found to be 790 ± 17 M⁻¹ s⁻¹. Further, at mast cell tryptase, the “kobsd /[I] mast cell tryptase” value is 1.2 M⁻¹ s⁻¹ and the “kobs /[I] mast cell tryptase” value came to 1 M⁻¹ s⁻¹.

As for `CC(NC(=O)C(Cc1ccccc1)NC(=O)OCc1ccccc1)C(=O)NC(c1ccc(C(=N)N)cc1)P(=O)(Oc1ccccc1)Oc1ccccc1` (mixture of isomers) [Cbz--Phe--Ala-(4-AmPhGly)^P (OPh)2], at rat granzyme K, the “kobsd /[I] rat granzyme K” value came to 4.2 ± 0.3 M⁻¹ s⁻¹. On bovine trypsin, the “kobsd /[I] bovine trypsin” value is 3010 ± 318 M⁻¹ s⁻¹ and the “kobs /[I] bovine trypsin” value was 3,010 ± 318 M^-1 s^-1. Moreover, the “kobs /[I] human thrombin” value on human thrombin is 1,150 ± 88 M^-1 s^-1. The “kobsd /[I] human granzyme A” value at human granzyme A worked out at 1770 ± 13 M⁻¹ s⁻¹. Besides, at mast cell tryptase, the “kobsd /[I] mast cell tryptase” value worked out at 4 M⁻¹ s⁻¹ and the “kobs /[I] mast cell tryptase” value is 4.0 ± 0.3 M⁻¹ s⁻¹.

With `N=C(N)c1ccc(C(NC(=O)C2CCCN2C(=O)CNS(=O)(=O)Cc2ccccc2)P(=O)(Oc2ccccc2)Oc2ccccc2)cc1` (mixture of isomers) [PhCH2 SO2 --Gly--Pro-(4-AmPhGly)^P (OPh)2], the “kobsd /[I] rat granzyme K” value at rat granzyme K was found to be 87 M⁻¹ s⁻¹. On bovine trypsin, the “kobsd /[I] bovine trypsin” value was 37060 ± 986 M⁻¹ s⁻¹ and the “kobs /[I] bovine trypsin” value is given as 37,060 ± 986 M^-1 s^-1. In addition, the “kobs /[I] human thrombin” value on human thrombin was 17,200 ± 128 M^-1 s^-1. For the same molecule, the “kobsd /[I] human granzyme A” value on human granzyme A was 3650 ± 180 M⁻¹ s⁻¹. Further, at mast cell tryptase, the “kobsd /[I] mast cell tryptase” value amounted to 2 M⁻¹ s⁻¹ and the “kobs /[I] mast cell tryptase” value amounted to 2.0 ± 0.1 M⁻¹ s⁻¹.

As for `N=C(N)c1ccc(C(NC(=O)C2CCCN2C(=O)CCc2ccccc2)P(=O)(Oc2ccccc2)Oc2ccccc2)cc1` (stereo not drawn) [3-Phenylpropanoyl-Pro-(4-AmPhGly)^P (OPh)2], at rat granzyme K, the “kobsd /[I] rat granzyme K” value was determined as 50 ± 2 M⁻¹ s⁻¹. For the same molecule, on bovine trypsin, the “kobsd /[I] bovine trypsin” value is 1520 ± 27 M⁻¹ s⁻¹ and the “kobs /[I] bovine trypsin” value is listed as 1,520 ± 27 M^-1 s^-1. Also, the “kobs /[I] human thrombin” value at human thrombin is given as 6,070 ± 68 M^-1 s^-1. At human granzyme A, the “kobsd /[I] human granzyme A” value was 1510 ± 217 M⁻¹ s⁻¹. Also, on mast cell tryptase, the “kobsd /[I] mast cell tryptase” value worked out at 0.4 M⁻¹ s⁻¹ and the “kobs /[I] mast cell tryptase” value worked out at 0.4 M⁻¹ s⁻¹.

For `C[C@H](NC(=O)[C@@H]1CCCN1C(=O)OCc1ccccc1)C(=O)NC(c1ccc(C(=N)N)cc1)P(=O)(Oc1ccccc1)Oc1ccccc1` (stereo partly drawn) [Cbz--Pro--Ala-(4-AmPhGly)^P (OPh)2], the “kobsd /[I] rat granzyme K” value at rat granzyme K was determined as 5 M⁻¹ s⁻¹. On bovine trypsin, the “kobsd /[I] bovine trypsin” value was 240 ± 10 M⁻¹ s⁻¹ and the “kobs /[I] bovine trypsin” value was 240 ± 10 M⁻¹ s⁻¹. Also, the “kobs /[I] human thrombin” value at human thrombin is 70 ± 2 M⁻¹ s⁻¹. Also, the “kobsd /[I] human granzyme A” value on human granzyme A stood at 380 ± 18 M⁻¹ s⁻¹. At mast cell tryptase, the “kobsd /[I] mast cell tryptase” value was 1 M⁻¹ s⁻¹ and the “kobs /[I] mast cell tryptase” value is 1 ± 0 M⁻¹ s⁻¹.

As for `CC(C)(C)OC(=O)N[C@H](Cc1ccccc1)C(=O)N1CCC[C@H]1C(=O)NC(c1ccc(C(=N)N)cc1)P(=O)(Oc1ccccc1)Oc1ccccc1.Cl` (stereo partly drawn) [Boc--D--Phe--Pro-(4-AmPhGly)^P (OPh)2, Diphenyl N-(Boc-D-Phe-Pro)amino(4-amidinophenyl)methanephosphonate hydrochloride], the “kobsd /[I] rat granzyme K” value at rat granzyme K came to 56 ± 2 M⁻¹ s⁻¹. On bovine trypsin, the “kobsd /[I] bovine trypsin” value came to 130 M⁻¹ s⁻¹ and the “kobs /[I] bovine trypsin” value is 2,200 M^-1 s^-1. The “kobs /[I] human thrombin” value on human thrombin is 11,000 M^-1 s^-1. Also, the “kobsd /[I] human granzyme A” value on human granzyme A came out at 170 M⁻¹ s⁻¹. Further, the “kobsd /[I] mast cell tryptase” value on mast cell tryptase was 0.4 M⁻¹ s⁻¹.

For `Cl.N=C(N)c1ccc(C(NC(=O)[C@@H]2CCCN2C(=O)c2ccccc2Oc2ccccc2)P(=O)(Oc2ccccc2)Oc2ccccc2)cc1` (stereo partly drawn) [Diphenyl N-(N-(2-Phenoxybenzoylprolyl))amino(4-amidinophenyl)methanephosphonate Hydrochloride], at rat granzyme K, the “kobsd /[I] rat granzyme K” value was 60 ± 5 M⁻¹ s⁻¹. Moreover, on bovine trypsin, the “kobsd /[I] bovine trypsin” value amounted to 7760 ± 310 M⁻¹ s⁻¹ and the “kobs /[I] bovine trypsin” value is on record as 7,760 ± 310 M^-1 s^-1. Also, on human thrombin, the “kobs /[I] human thrombin” value is 42,400 ± 4190 M^-1 s^-1. The “kobsd /[I] human granzyme A” value on human granzyme A was 610 ± 88 M⁻¹ s⁻¹. For the same molecule, on mast cell tryptase, the “kobsd /[I] mast cell tryptase” value came to 0.9 M⁻¹ s⁻¹ and the “kobs /[I] mast cell tryptase” value came out at 0.9 M⁻¹ s⁻¹.
